This note sets out measurements from PubChem BioAssay AID1745844 (Carcinogenic Potency Database (CPDB), 2022).

In the data set the test system is rodent lifetime carcinogenesis bioassay, tumor incidence TD50. The experiment in a line: chronic cancer bioassays in animals – CPDB, compiled studies (AID 1745844).

Each structure is given as a SMILES string. Active and inactive are the calls of the source. No rule for the calls is given here.

The term TD50 denotes the 50% point of the dose-response relation for the toxic effect studied. In the case of `Nc1ccc(Cc2ccc(N)c(Cl)c2)cc1Cl`, the TD50 was 52.8 mg/kg/day (mouse, strain CD-1 HaM/ICR, females, in feed, site: any site (literature study), lesion: several types, types named in the paper, dosed 77 weeks, study length 90 weeks); 66.6 mg/kg/day (mouse, strain CD-1 HaM/ICR, females, in feed, site: liver, lesion: hepatoma, dosed 77 weeks, study length 90 weeks); 66.6 mg/kg/day (mouse, strain CD-1 HaM/ICR, females, in feed, site: liver, lesion: several types, types named in the paper, dosed 77 weeks, study length 90 weeks); 556 mg/kg/day (inactive) (mouse, strain CD-1 HaM/ICR, females, in feed, site: lung, lesion: several types, types named in the paper, dosed 77 weeks, study length 90 weeks); 97.9 mg/kg/day (mouse, strain CD-1 HaM/ICR, males, in feed, site: any site (literature study), lesion: several types, types named in the paper, dosed 77 weeks, study length 94 weeks); 471 mg/kg/day (mouse, strain CD-1 HaM/ICR, males, in feed, site: liver, lesion: several types, types named in the paper, dosed 77 weeks, study length 94 weeks). Moreover, the TD50 runs as follows: (mouse, strain CD-1 HaM/ICR, males, in feed, site: lung, lesion: several types, types named in the paper, dosed 77 weeks, study length 94 weeks) 342 mg/kg/day (inactive); (rat, strain Charles River CD (Sprague-Dawley), males, in feed, site: any site (literature study), lesion: several types, types named in the paper, dosed 77 weeks, study length 98 weeks) 33.4 mg/kg/day; (rat, strain Charles River CD (Sprague-Dawley), males, in feed, site: liver, lesion: several types, types named in the paper, dosed 77 weeks, study length 98 weeks) 70.1 mg/kg/day.

For the compound `CN(N=O)c1ccc([N+](=O)[O-])cc1`, the carcinogen call (rat, strain Fischer 344, males, in drinking water, site: any site (literature study), lesion: several types, types named in the paper, dosed 50 weeks, study length 114 weeks) was “negative (inactive)”. The TD50 (rat, strain Fischer 344, males, in drinking water, site: liver, lesion: hyperplastic nodule, dosed 50 weeks, study length 114 weeks) is 5.87 mg/kg/day (inactive).

As to `C[C@@H]1C\C=C/C=C/C=C/C=C/[C@H](O[C@@H]2O[C@H](C)[C@@H](O)[C@H](N)[C@@H]2O)C[C@@H]2O[C@](O)(C[C@@H](O)C[C@@H]3O[C@@H]3/C=C\C(=O)O1)C[C@H](O)[C@H]2C(=O)O`, the carcinogen call reads like this: (rat, strain CFN, females, in feed, site: liver, lesion: malignant hepatoma, dosed 105 weeks, study length 105 weeks) “negative (inactive)”; (rat, strain CFN, males, in feed, site: thymus gland, lesion: thymoma, dosed 105 weeks, study length 105 weeks) “negative (inactive)”. Besides, the TD50 (rat, strain CFN, males, in feed, site: lung, lesion: lymphosarcoma, dosed 105 weeks, study length 105 weeks) was 1970 mg/kg/day (inactive).

Turning to `C=COC(C)=O`, the TD50 runs as follows: (mouse, strain Charles River CD1, males, inhaled, site: lung, lesion: squamous-cell carcinoma, dosed 104 weeks, study length 104 weeks) 32000 mg/kg/day; (mouse, strain Swiss, females, in drinking water, site: Zymbal's gland, lesion: carcinoma, dosed 78 weeks, study length 151 weeks) 36000 mg/kg/day; (mouse, strain Swiss, females, in drinking water, site: any site (literature study), lesion: benign tumor, dosed 78 weeks, study length 151 weeks) 2030 mg/kg/day; (mouse, strain Swiss, females, in drinking water, site: any site (literature study), lesion: malignant tumor, dosed 78 weeks, study length 151 weeks) 3440 mg/kg/day; (mouse, strain Swiss, females, in drinking water, site: esophagus, lesion: acanthoma, dosed 78 weeks, study length 151 weeks) 36000 mg/kg/day; (mouse, strain Swiss, females, in drinking water, site: esophagus, lesion: squamous-cell carcinoma, dosed 78 weeks, study length 151 weeks) 5640 mg/kg/day. Besides, the TD50 was 6850 mg/kg/day (mouse, strain Swiss, females, in drinking water, site: forestomach, lesion: acanthoma, dosed 78 weeks, study length 151 weeks); 11700 mg/kg/day (mouse, strain Swiss, females, in drinking water, site: forestomach, lesion: squamous-cell carcinoma, dosed 78 weeks, study length 151 weeks); 29900 mg/kg/day (mouse, strain Swiss, females, in drinking water, site: lung, lesion: adenocarcinoma, dosed 78 weeks, study length 151 weeks); 11700 mg/kg/day (mouse, strain Swiss, females, in drinking water, site: lung, lesion: adenoma, dosed 78 weeks, study length 151 weeks); 7640 mg/kg/day (mouse, strain Swiss, females, in drinking water, site: lung, lesion: several types, types named in the paper, dosed 78 weeks, study length 151 weeks); 36000 mg/kg/day (mouse, strain Swiss, females, in drinking water, site: oral cavity, lesion: squamous-cell carcinoma, dosed 78 weeks, study length 151 weeks). The TD50 reads like this: (mouse, strain Swiss, females, in drinking water, site: stomach, lesion: adenocarcinoma, dosed 78 weeks, study length 151 weeks) 36000 mg/kg/day; (mouse, strain Swiss, females, in drinking water, site: tongue, lesion: squamous-cell carcinoma, dosed 78 weeks, study length 151 weeks) 8760 mg/kg/day; (mouse, strain Swiss, females, in drinking water, site: uterus, lesion: adenocarcinoma, dosed 78 weeks, study length 151 weeks) 5570 mg/kg/day; (mouse, strain Swiss, females, in drinking water, site: uterus, lesion: leiomyoma, dosed 78 weeks, study length 151 weeks) 26100 mg/kg/day; (mouse, strain Swiss, females, in drinking water, site: uterus, lesion: leiomyosarcoma, dosed 78 weeks, study length 151 weeks) 26100 mg/kg/day; (mouse, strain Swiss, females, in drinking water, site: uterus, lesion: malignant tumor, dosed 78 weeks, study length 151 weeks) 3920 mg/kg/day. In addition, the TD50 by setting is: (mouse, strain Swiss, males, in drinking water, site: any site (literature study), lesion: benign tumor, dosed 78 weeks, study length 135 weeks) 6040 mg/kg/day; (mouse, strain Swiss, males, in drinking water, site: any site (literature study), lesion: malignant tumor, dosed 78 weeks, study length 135 weeks) 552 mg/kg/day; (mouse, strain Swiss, males, in drinking water, site: forestomach, lesion: acanthoma, dosed 78 weeks, study length 135 weeks) 9330 mg/kg/day; (mouse, strain Swiss, males, in drinking water, site: lung, lesion: adenocarcinoma, dosed 78 weeks, study length 135 weeks) 68200 mg/kg/day; (mouse, strain Swiss, males, in drinking water, site: lung, lesion: adenoma, dosed 78 weeks, study length 135 weeks) 5750 mg/kg/day; (mouse, strain Swiss, males, in drinking water, site: lung, lesion: several types, types named in the paper, dosed 78 weeks, study length 135 weeks) 28000 mg/kg/day. For the same compound, the TD50 (mouse, strain Swiss, males, in drinking water, site: oral cavity, lesion: squamous-cell carcinoma, dosed 78 weeks, study length 135 weeks) was 9330 mg/kg/day; the TD50 (mouse, strain Swiss, males, in drinking water, site: stomach, lesion: adenocarcinoma, dosed 78 weeks, study length 135 weeks) was determined as 9330 mg/kg/day; the TD50 (mouse, strain Swiss, males, in drinking water, site: tongue, lesion: squamous-cell carcinoma, dosed 78 weeks, study length 135 weeks) turned out to be 9330 mg/kg/day; the TD50 (rat, strain Charles River CD (Sprague-Dawley), females, inhaled, site: larynx, lesion: squamous-cell carcinoma, dosed 104 weeks, study length 104 weeks) worked out at 9050 mg/kg/day; the TD50 (rat, strain Charles River CD (Sprague-Dawley), females, inhaled, site: nose, lesion: squamous-cell carcinoma, dosed 104 weeks, study length 104 weeks) is 2220 mg/kg/day; the TD50 (rat, strain Charles River CD (Sprague-Dawley), males, inhaled, site: nose, lesion: benign tumor, dosed 104 weeks, study length 104 weeks) is 1240 mg/kg/day. The TD50 is, setting by setting: (rat, strain Charles River CD (Sprague-Dawley), males, inhaled, site: nose, lesion: carcinoma, in situ, dosed 104 weeks, study length 104 weeks) 6310 mg/kg/day; (rat, strain Charles River CD (Sprague-Dawley), males, inhaled, site: nose, lesion: malignant tumor, dosed 104 weeks, study length 104 weeks) 2080 mg/kg/day; (rat, strain Charles River CD (Sprague-Dawley), males, inhaled, site: nose, lesion: papilloma, inverted, dosed 104 weeks, study length 104 weeks) 1550 mg/kg/day; (rat, strain Charles River CD (Sprague-Dawley), males, inhaled, site: nose, lesion: several types, types named in the paper, dosed 104 weeks, study length 104 weeks) 758 mg/kg/day; (rat, strain Charles River CD (Sprague-Dawley), males, inhaled, site: nose, lesion: squamous-cell carcinoma, dosed 104 weeks, study length 104 weeks) 3140 mg/kg/day; (rat, strain Fischer 344, females, in drinking water, site: liver, lesion: neoplastic nodule, dosed 100 weeks, study length 130 weeks) 488 mg/kg/day. Besides, the TD50 (rat, strain Fischer 344, females, in drinking water, site: thyroid gland, lesion: c-cell adenoma, dosed 100 weeks, study length 130 weeks) was 420 mg/kg/day; the TD50 (rat, strain Fischer 344, females, in drinking water, site: thyroid gland, lesion: c-cell carcinoma, dosed 100 weeks, study length 130 weeks) was 25500 mg/kg/day; the TD50 (rat, strain Fischer 344, females, in drinking water, site: uterus, lesion: adenocarcinoma, dosed 100 weeks, study length 130 weeks) was 494 mg/kg/day; the TD50 (rat, strain Fischer 344, males, in drinking water, site: any site (literature study), lesion: several types, types named in the paper, dosed 100 weeks, study length 130 weeks) amounted to 57.7 mg/kg/day; the TD50 (rat, strain Fischer 344, males, in drinking water, site: liver, lesion: neoplastic nodule, dosed 100 weeks, study length 130 weeks) was 132 mg/kg/day. Further, where the note is “rat, strain Fischer 344, males, in drinking water, site: thyroid gland, lesion: c-cell carcinoma, dosed 100 weeks, study length 130 weeks”, the carcinogen call was “positive”.

With `Nc1ccc([N+](=O)[O-])cc1O`, the TD50 was 5760 mg/kg/day (inactive) (mouse, strain B6C3F1, females, by gavage, site: any site (literature study), lesion: several types, types named in the paper, dosed 103 weeks, study length 104 weeks); 807000 mg/kg/day (mouse, strain B6C3F1, females, by gavage, site: lung, lesion: alveolar/bronchiolar adenoma + alveolar/bronchiolar carcinoma, dosed 103 weeks, study length 104 weeks); 101 mg/kg/day (rat, strain Fischer 344, males, by gavage, site: adrenal medulla, lesion: pheochromocytoma + pheochromocytoma, malignant, dosed 103 weeks, study length 104 weeks); 33.6 mg/kg/day (rat, strain Fischer 344, males, by gavage, site: any site (literature study), lesion: several types, types named in the paper, dosed 103 weeks, study length 104 weeks); 1560 mg/kg/day (rat, strain Fischer 344, males, by gavage, site: liver, lesion: hepatocellular adenoma + hepatocellular carcinoma + neoplastic nodule, dosed 103 weeks, study length 104 weeks); 111 mg/kg/day (rat, strain Fischer 344, males, by gavage, site: pancreas, lesion: acinar-cell adenoma, dosed 103 weeks, study length 104 weeks). Besides, the TD50 by setting is: (rat, strain Fischer 344, males, by gavage, site: pancreas, lesion: acinar-cell carcinoma + acinar-cell adenoma, dosed 103 weeks, study length 104 weeks) 107 mg/kg/day; (rat, strain Fischer 344, males, by gavage, site: pancreatic islets, lesion: islet-cell carcinoma, dosed 103 weeks, study length 104 weeks) 393 mg/kg/day; (rat, strain Fischer 344, males, by gavage, site: preputial gland, lesion: adenoma, NOS + carcinoma, NOS, dosed 103 weeks, study length 104 weeks) 392 mg/kg/day; (rat, strain Fischer 344, males, by gavage, site: preputial gland, lesion: carcinoma, NOS, dosed 103 weeks, study length 104 weeks) 562 mg/kg/day; (rat, strain Fischer 344, males, by gavage, site: testis, lesion: interstitial-cell tumor, dosed 103 weeks, study length 104 weeks) 28.6 mg/kg/day. Besides, the carcinogen call (mouse, strain B6C3F1, males, by gavage, site: any site (literature study), lesion: several types, types named in the paper, dosed 103 weeks, study length 104 weeks) is “negative (inactive)” and the carcinogen call (rat, strain Fischer 344, females, by gavage, site: any site (literature study), lesion: several types, types named in the paper, dosed 103 weeks, study length 104 weeks) is “negative (inactive)”.
